The solubility is the dissolved amount per volume that the medium holds. Low readings indicate a poorly soluble substance, high ones a readily soluble substance.

Consider two compounds from patent publication US20230183246A1, “CONTINUOUS FLOW SONOGASHIRA COUPLING SYNTHESIS METHOD” (Purdue Research Foundation, priority 2020, published 2023).

One series has as its system RET and its mutant forms. As to conditions: compared with reported RET inhibitors; cited from earlier work.
A further series concerns FLT-3. The settings on record: cited from earlier work.
Another series in a line: solubility in DMF. Type of series: physicochemical. The procedure:
The reaction set-up used a T-mixer at 20° C. prior to injecting the solution of 4 into the heated glass reactor chip that was held at 80 or 95° C. […] Based on these findings, we sought to modify our strategy for execution of this reaction in flow.

Values joined by “and” are separate entries in the source; they are usually repeats but may differ in a detail not shown here. Equal entries are not always repeated.

With `CN1CCN(Cc2ccc(NC(=O)c3cncc(C#Cc4cnc(N)c5ncccc45)c3)cc2C(F)(F)F)CC1` [HSN608, 5-((8-Amino-1,7-naphthyridin-5-yl)ethynyl)-N-(4-((4-methylpiperazin-1-yl)methyl)-3-(trifluoromethyl)phenyl)nicotinamide], the “inhibition activity of RET and its mutant forms” value in the series with RET and its mutant forms is on record as “better than the reported RET inhibitors”. In the series on FLT-3, the “potency toward inhibition of all FLT-3 forms” value is reported as “high potency”.

`Nc1ncc(Br)c2cccnc12` [compound 4, 5-bromo-8-amino-1,7-naphthyridine]: the solubility is 14.6 mg/ml and 0.065 M in the series “solubility in DMF” (20° C. in DMF); 0.0785 M and 17.6 mg/ml in “solubility in DMF” (20° C. in DMF, after recrystallizing twice (EtOH, then EtOAc)); 38.1 mg/ml and 0.170 M in “solubility in DMF” (55° C. in DMF).
